# Measurements published in patent US20030082229A1, “Parenteral chlorambucil for treatment of malignant and autoimmune disease and methods of use” (priority 2001, published 2003).
# Entries after “also recorded” stand apart in the source; their conditions may differ. Where two headings read alike, the source gives them in different places.
# Columns and labels:
# [1] = IV CLB pharmacology in beagle dogs; assay type: in vivo
# Description: The CLB given to beagle dogs was prepared as above. The same general design of the experiment was used, except that the dogs received a maximum dose of 7.5 mg/kg BW through a cephalic vein catheter, and the drug was delivered under general anesthesia.
# (§1) Blood samples (0.5-1.0 ml) were drawn in heparinized tubes at selected time points prior to the drug infusion (“blank”), and from 5 min to 6 hours after drug injection for determination of CLB concentrations. The samples were obtained through cardiac puncture under light CO2 anesthesia in the rats and through a prepositioned cephalic vein catheter in the dogs. The blood was centrifuged at 1,000×g for 10 min, and the plasma was removed and stored at−80° C. until extracted and assayed by HPLC.
# [2] = cited from earlier work
# physchem = assay type: physicochemical
# Description: The solubility of CLB was determined in several individual vehicles. Briefly, a known amount of CLB drug, formulated as a powder (Sigma, St Louis, Mo.), was equilibrated in the respective solvent at RT over 1-4 hours. An aliquot was removed, filtered, and diluted in methanol (MeOH) before high-pressure liquid chromatography (HPLC) to determine solubility at predetermined times. Based on the CLB solubility in each vehicle, different solvents were mixed according to the cosolvency principle in an attempt to enhance the stable solubility (Spiegel A. J., Noseworthy M. N.: Use of nonaqueous solvents in parenteral products. J. PHARM. SCI. 52:917-927, 1963; Yalkowsky S. H., Roseman T. J.: Solubilization of drugs by cosolvents. In: Yalkowsky S. H. (Ed.): TECHNIQUES OF SOLUBILIZATION OF DRUGS. pp. 91-134. Marcel Dekker Inc., New York, N.Y. 1981).
# An excess of CLB as a powder was added to DMSO, PEG, and PG at RT. Each mixture was placed in a dark environment and checked visually for up to 4 hours for evidence of solubilization. Samples of 1 ml were taken at various time intervals. The CLB concentration was then determined by HPLC after filtration through a 0.45 μm polytetrafluoroethylene (PTFE) membrane filter (Autovial®) fitted to a syringe assembly (Whatman Inc., Springfield Mill, Maidstone, Kent, UK).
# [3] = system: KBM-7/B5 human myeloid leukemia cell line; experiment: In vitro clonogenic cytotoxicity assay, KBM-7/B5; assay type: cell-based; settings: acetone positive control
# Description: (§2) The cytotoxic potential of selected solvent systems with and without CLB was determined against the two human myeloid leukemia cell lines (HL-60) (Gallagher R. Collins S, Trujillo et al: Characterization of the continuously differentiating myeloid cell line (HL-60) from a patient with acute promyelocytic leukemia. BLOOD 54:254-68, 1979) and human myeloid leukemia cell line (KBM-7/B5) (Andersson B S, Beran M, Pathak S, et al: Ph-positive chronic leukemia with near-haploid conversion in vivo and establishment of a continuously growing cell line with similar cytogenetic pattern. CANCER GENETICS AND CYTOGENET 24:335-43, 1987; Andersson B S, Collins V P, Kurzrock R, et al: KBM-7; human myeloid leukemia cell line with double Philadelphia chromosomes but lacking normal BCR and c-ABL transcripts. LEUKEMIA, 9:2100-2108, 1995). Briefly, HL-60 or KBM-7/B5 cells were suspended at a density of 5,000 cells per ml in Iscove's modified Dulbecco medium (IMDM) supplemented with 20% fetal bovine serum (FBS) and 0.3% agar as viscous support. […] Clones of>50 cells were counted under an inverted phase contrast microscope, and survival curves were constructed as described (Andersson B S, Mroue M, Britten R A, Murray D: The role of DNA damage in the resistance of human chronic myeloid leukemia cells to cyclophosphamide analogs. CANCER RESEARCH 54:5394-5400, 1994).
# [4] = assay type: physicochemical
# [5] = Osmotic pressure measurement (micro-osmometer); assay type: physicochemical; settings: CLB final concentration 1-5 mg/ml
# Description: It is desirable that a parenteral formulation of a pharmacologically active agent be isosmotic with blood. A hypertonic delivery system can be utilized if the drug formulation is infused through an indwelling (central) venous catheter and gradually diluted in a large blood volume. Osmotic pressures were measured with a micro-osmometer model 3MOplus osmometer (Advanced Instruments Inc., Needham Heights, Mass.). The instrument was calibrated using Advans™ intrinsic calibration standards (Advanced Instruments Inc.) in the range of 500-2000 mOsm/kg. The test solution was placed in a disposable cuvette, and the osmotic pressure readings were recorded. Triplicate measurements were carried out for each vehicle (without CLB), and six measurements were done with drug added. A two-tailed t-test was used to compare the differences in osmotic pressures of various solvent vehicles with and without the addition of CLB (Mann H. B., Whitney D. R.: On a test whether one of two random variables is stochastically larger than the other. ANN. MATH. STATIST. 18: 50-60, 1947).
# [6] = IV CLB pharmacology in rats; assay type: in vivo, Sprague-Dawley rats
# Text: Male Sprague-Dawley rats with a body weight of 250-300 g were used for the in vivo pharmacology experiments (Harlan-Sprague-Dawley, Houston, Tex.). The animals were allowed a minimum of 3-4 days after arrival to accommodate to the new environment and allowed free access to commercial feed and tap water prior to and during the experimentation period. The animals were housed in facilities that meet the requirements of the U.S. Department of Agriculture, (USDA), National Institute of Health (NIH), and Department of Health and Human Services (DHHS).
# The CLB dose of 5 mg/kg BW was determined to be the highest dose that could be administered to the rats as an IV bolus injection without requiring anticonvulsant premedication.
# The CLB was formulated in EtOH/lipid (prototype EtOH/lipid solvent vehicle) to a stock concentration of 100 mg/ml and then diluted with NS so the dose (5.0 mg/kg) could be injected in a tail vein in a volume of approximately 0.5 ml. The CLB concentrations of the formulation were confirmed by HPLC prior to all administrations. No anticonvulsant premedication for the rats in this experiment was used in order to avoid the possible induction of microsomal liver enzymes that could modify CLB metabolism. The animals were unanesthetized, being only physically restrained during the drug injection for the same reason.
# as §1
# erythrocytes = experiment: Hemolysis studies in vitro; assay type: cell-based; settings: drug concentrations of 100 μg/ml or more
# Text: The procedure of Parthasarathy et al. was used to examine the hemolytic potential of a few selected formulations of the present invention, and the LD50 (concentration that results in 50% lethality or destruction of a population) values of the most optimal formulation was constructed as previously described (Parthasarathy R, Sacks P G, Harris D, et al: Interaction of liposome-associated all-trans-retinoic acid with squamous carcinoma cells. CANCER CHEMOTHER. PHARMACOL. 34:527-34, 1994). Briefly, heparinized blood was mixed with an equal volume of Alsever's solution. This mixture was washed twice in phosphate-buffered saline (PBS), and a 10% (volume per volume, v/v) erythrocyte/PBS solution was then prepared and mixed with increasing amounts of the solvent (prototype EtOH/lipid solvent vehicle and NS) with or without addition of CLB. These resulting mixtures were incubated for 4 hours at 37° C. At the end of the incubation, the cells were pelleted at 10,000×g in an Eppendorf micro-centrifuge, and after washing twice in NS, the pellet was resuspended and lysed using distilled water. The release of hemoglobin in the supernatant (i.e., hemolysis) was determined spectrophotometrically at a wavelength of 550 nm. […]
# The hemolytic potential of the formulations (EtOH/lipid/CLB/NS) were evaluated as described. […]
# [7] = assay type: physicochemical; settings: RT
# Text: HPLC assay provides an accurate and sensitive detection system for low concentrations of CLB in solution, both protein-free mixtures and protein-containing fluids (i.e., blood plasma), utilizing absorbency detection in the ultraviolet (UV) spectrum. For the detection a wavelength of 254 nm was chosen on the basis of the inherent absorption maximum of the CLB molecule. The HPLC system was equipped with a Waters 717 plus AutoSampler (Waters, Milford, Mass.). The detector was a Waters Model 486 Tunable Absorbance Detector in sequence with a Waters Millennium™ software package for HPLC (Waters, Milford, Mass.). The column used was a Whatman C-18 EQC […] 125A μBondapak 4.6×216 mm. […] The analytic system was based on previously established extraction and HPLC experience with retinoic acid and with the bifunctional DNA-alkylating drug busulfan (Napoli J L, Pramanik B C, Williams J B et al: Quantification of retinoic acid by gas-liquid chromatography-mass spectrometry: total versus all-trans-retinoic acid in human plasma. J LIPID RES. 26: 387-392, 1985; Chow D S-L, Bhagwatwar H P, Phadungpojna S, Andersson B S: Stability-indicating high-performance liquid chromatographic assay of busulfan in aqueous and plasma samples. J CHROMATOGR B, 704: 277-288, 1997). […]
# [8] = system: HL-60 human myeloid leukemia cell line; experiment: In vitro clonogenic cytotoxicity assay, HL-60; assay type: cell-based; settings: acetone positive control
# Description: as §2
smiles,measurement,setting,value
"O=C(O)CCCc1ccc(N(CCCl)CCCl)cc1 [CLB, 4-[Bis(2-chloroethyl)amino]benzenebutanoic acid]","CLB plasma concentrations after IV injection, beagles",[1]; 7.5 mg/kg BW IV,"detectable, cytotoxic CLB plasma concentrations; also recorded: for several hours remained in the cytotoxic range; also recorded: maintained for several hours"
same,"Tolerability of injection, beagles",[1]; 7.5 mg/kg BW IV,well accepted
same,"Neurological effect, no premedication","[1]; 7.5 mg/kg BW IV, dogs",generalized seizure; also recorded: caused seizures
same,"Neurological effect, premedicated with diphenylhydantoin","[1]; 7.5 mg/kg BW IV, two dogs",tolerated the CLB administration without any obvious neurological effects
same,half-life,"[1]; dog, plasma, IV, this formulation, FIG. 7 beagle 7.5 mg/kg, read-out: Apparent terminal half-life",~60 min
same,Dose at which dose-limiting neurological toxicity is manifested,"[2]; oral, intermittent schedule, confusion, generalized seizures",≥ 100 mg/m^2 BSA
same,Terminal half-life in blood,[2]; taken by mouth,approximately 60 minutes
same,solubility,"physchem; DMSO, organic solvent or mixture, thermodynamic from solid, DMSO, RT, read-out: CLB solubility (maximum equilibrium concentration) in DMSO",> 100 mg/mL
same,solubility at 1 h,"physchem; EtOH, organic solvent or mixture, thermodynamic from solid, EtOH, within 1 hour at RT, read-out: CLB solubility (maximum equilibrium concentration) in EtOH",> 100 mg/mL
same,CLB solubility in aqueous solvents,"physchem; NS, 5% dextrose in water, soybean lipid emulsion (Intralipid)",virtually insoluble
same,"Solubilized CLB in PEG-400, PG, NS, 20% soybean lipid emulsion, 5% dextrose",physchem; RT,did not yield any significant concentrations of solubilized drug
same,solubility,"physchem; prototype EtOH/lipid solvent vehicle, aqueous with cosolvent or surfactant or cyclodextrin, thermodynamic from solid, EtOH/emulsified soybean oil vehicle, read-out: CLB solubility in prototype EtOH/lipid solvent vehicle",≥ 100 mg/mL
same,"Cytotoxic activity in the formulation vs CLB dissolved in acetone, KBM-7/B5",[3],retained full cytotoxic activity
same,CLB degradation in DMSO,[4]; DMSO,started degrading within a few hours
same,Time CLB stable in DMSO before significant degradation,"[4]; DMSO, RT",at most 2 hours
same,Time formulation stable after mixing with infusion fluid,"[4]; EtOH/lipid diluted with infusion fluid, RT, listed as Chlorambucil",> 24 h
same,Stability (percent remaining) of infusion formulation,"[4]; RT, over 24 hours, FIG. 1",> 90%
same,"CLB recovered at 24 hours, diluted to 1 mg/ml",[4]; primary stock diluted with NS to 1 mg/ml,> 95%
same,"CLB recovered at 24 hours, diluted to 5 mg/ml",[4]; primary stock diluted with NS to 5 mg/ml,> 95%
same,Change of osmolarity of complete vehicle by addition of CLB,[5],< 5%
same,"CLB plasma concentrations after IV injection, rats",[6]; 5 mg/kg BW IV,"detectable, cytotoxic CLB plasma concentrations; also recorded: for several hours remained in the cytotoxic range; also recorded: maintained for several hours"
same,"Tolerability of injection, rats",[6]; 5.0 mg/kg BW IV,well tolerated; also recorded: well accepted
same,Highest dose as IV bolus without requiring anticonvulsant premedication,"[6]; rats, IV bolus",5 mg/kg BW
same,CLB-dependent lysis,erythrocytes,barely exceeded background
same,Time CLB stable at 100 mg/ml in EtOH/lipid solvent,"[7]; 100 mg/ml, prototype EtOH/lipid vehicle",more than 7 days
same,Drug still intact at 7 days,"[7]; EtOH/lipid solvent system, HPLC",> 95%
same,"Cytotoxic activity in the formulation vs CLB dissolved in acetone, HL-60",[8],retained full cytotoxic activity
